From article PMC7139904, “Structural Requirements of Benzofuran Derivatives Dehydro-δ- and Dehydro-ε-Viniferin for Antimicrobial Activity Against the Foodborne Pathogen Listeria monocytogenes” (International Journal of Molecular Sciences, 2020)
≈ marks a conversion by molar mass, not a printed value. Entries after “also recorded” stand apart in the source; their conditions may differ. Read-outs that look alike come from different tables or passages of the source. Marks after values point to notes of the source that are not given here.

What was measured:
L. monocytogenes Scott A = assay: Minimal inhibitory concentration (MIC) and minimal bactericidal concentration (MBC), 96-well plate broth assay; type: cell-based, Listeria monocytogenes; details: for MBC: value in brackets
Method: All synthesized derivatives were stored in dry form at -20 °C and dissolved in DMSO at a final concentration of 4.096 mg/mL prior to their use in the MIC and MBC determination. Briefly, L. monocytogenes was cultivated in Brain […] Infusion (BHI) broth (Sigma, Italy) at 37 °C for 24 h under a shaking condition (200 rpm). After the growth, the cells were diluted in BHI to 0.2 OD 600 nm and then used for the 96-well plate inoculum. The concentrations tested ranged from 1 up to 512 μg/mL. The assay was carried out in triplicate in a 96-well plate, according to Mattio et al., 2019 [4].

[1] = Cytotoxicity, growth inhibition assay (MTS) on normal skin fibroblasts; type: cell-based, human; details: human, WS1 normal skin fibroblast cells; WS1 IC50 (µM) compared with MIC (µM) on L. monocytogenes Scott A; read-out: Selectivity: concentration with cytotoxic effects on WS1 relative to MIC against L. monocytogenes
Method: (§1) The normal human skin WS1 fibroblast cells (ATCC CRL-1502) were cultured in Eagle’s Minimum Essential Medium plus 10% fetal bovine serum at 37 °C and 5% CO2. Cytotoxic potency was assessed by a growth inhibition assay (CellTiter 96® AQueous One Solution Cell Proliferation Assay MTS, Promega). The cells were seeded in a 96-well plate, and 24 h later were exposed to the compounds (concentration range 1−200 μM). After 48 h of exposure, 20 μL of 3-(4,5-dimethylthiazol-2-yl)-5-(3-carboxymethoxyphenyl)-2-(4-sulfophenyl)-2H-tetrazolium salt was added to each well. The absorbance was measured using a FLUOstar OPTIMA plate reader (BMG Labtech GmbH, Offenburg, Germany) at 492 nm after 4 h of incubation at 37 °C in 5% CO2. The IC50 was defined as the drug concentration causing 50% cell growth inhibition, determined by the dose−response curves. Experiments were performed in triplicate.

WS1 fibroblast cells = assay: as above; type: cell-based, human; details: for IC50: WS1 cells, 48 h exposure, MTS assay, mean ± SD of three independent experiments; for Selectivity: concentration with cytotoxic effects on WS1 relative to MIC against L. monocytogenes: WS1 IC50 (µM) compared with MIC (µM) on L. monocytogenes Scott A
Method: as §1

[2] = system: L. monocytogenes LMG 16,779; parameters: method as in PMID 26867522; details: cited from earlier work
[3] = Listeria monocytogenes, BHI broth, tested 1 up to 512 µg/mL, triplicate, read-out: MIC
[4] = Listeria monocytogenes, MIC as µM concentration, read-out: MIC
[5] = Listeria monocytogenes, tested 1 up to 512 µg/mL, triplicate, read-out: MBC
[6] = Listeria monocytogenes, 24 h, BHI broth, tested 1 up to 512 µg/mL, triplicate, read-out: MIC
[7] = BHI broth, tested 1 up to 512 µg/mL, triplicate
[8] = MIC as µM concentration, read-out: MIC
[9] = tested 1 up to 512 µg/mL, triplicate

| Compound | MIC (L. monocytogenes Scott A; [3]) | MIC (L. monocytogenes Scott A; [4]) | MBC (L. monocytogenes Scott A; [5]) | MIC (L. monocytogenes Scott A; [6]) | selectivity ratio at 48 h [1] | IC50 (WS1 fibroblast cells; Homo sapiens, WS1, 48 h) | Selectivity: concentration with cytotoxic effects on WS1 relative to MIC against L. monocytogenes (WS1 fibroblast cells) | Antimicrobial activity, result in words (L. monocytogenes Scott A) | MIC (L. monocytogenes Scott A; [7]) | MIC (L. monocytogenes Scott A; [8]) | MBC (L. monocytogenes Scott A; [9]) | IC50 (WS1 fibroblast cells) | MIC ([2]; MIC as µM concentration) | MIC [2] |
| --- | --- | --- | --- | --- | --- | --- | --- | --- | --- | --- | --- | --- | --- | --- |
| [H]/N=C(\N/C(=N/[H])NCCCCCCNC(=N)NC(=N)Nc1ccc(Cl)cc1)Nc1ccc(Cl)cc1 [Chlorhexidine, reference compound] | 8 µg/mL | 15.8 µM | 32 µg/mL (≈ 63.3 µM) |  |  |  |  |  |  |  |  |  |  |  |
| Oc1ccc(-c2oc3ccc(/C=C/c4cc(O)cc(O)c4)cc3c2-c2cc(O)cc(O)c2)cc1 [Compound 1, dehydro-δ-viniferin] | 2 µg/mL | 4.42 µM | 16 µg/mL (≈ 35.4 µM) | 2 µg/mL | ~10 | 37 ± 1.4 µM |  |  |  |  |  |  |  |  |
| Oc1ccc(/C=C/c2cc(O)cc3oc(-c4ccc(O)cc4)c(-c4cc(O)cc(O)c4)c23)cc1 [Compound 2, viniferifuran] | 16 µg/mL | 35.4 µM | > 512 µg/mL | 16 µg/mL |  | 33 ± 1.4 µM |  |  |  |  |  |  |  |  |
| Oc1ccc(-c2oc3ccccc3c2-c2cc(O)cc(O)c2)cc1 [Compound 3] | 16 µg/mL | 50.3 µM | 64 µg/mL (≈ 201 µM) | 16 µg/mL |  | 98.7 ± 1.8 µM | two-fold higher; also recorded: at least two-times higher |  |  |  |  |  |  |  |
| Oc1ccc(-c2cc3cc(/C=C/c4cc(O)cc(O)c4)ccc3o2)cc1 [Compound 4] | 256 µg/mL | 743 µM | > 512 µg/mL | 256 µg/mL |  | 97.8 ± 3 µM |  | completely inactive |  |  |  |  |  |  |
| Oc1cc(O)cc(/C=C/c2ccc3occ(-c4cc(O)cc(O)c4)c3c2)c1 [Compound 5] | 16 µg/mL | 44.4 µM | 64 µg/mL (≈ 178 µM) |  |  | 96.8 ± 4.5 µM | two-fold higher; also recorded: at least two-times higher |  |  |  |  |  |  |  |
| Oc1ccc(-c2oc3cc(O)ccc3c2-c2cc(O)cc(O)c2)cc1 [Compound 6] | 64 µg/mL | 191 µM | > 512 µg/mL | 64 µg/mL |  | 98.5 ± 2 µM |  |  |  |  |  |  |  |  |
| Oc1ccc(/C=C/c2cc(O)cc3occ(-c4cc(O)cc(O)c4)c23)cc1 [Compound 7] |  |  |  |  |  | 45 ± 1.2 µM | two-fold higher; also recorded: at least two-times higher |  | 8 µg/mL | 23.2 µM | 64 µg/mL (≈ 178 µM) |  |  |  |
| Oc1ccc(/C=C/c2cc(O)cc3occ(-c4cc(O)cc(O)c4)c23)cc1 [Compound 8] |  |  |  |  |  |  |  |  | 64 µg/mL | 178 µM | > 512 µg/mL | 85 ± 4.6 µM |  |  |
| COc1cc(/C=C/c2ccc3oc(-c4ccc(O)cc4)cc3c2)cc(OC)c1 [Compound 9] | > 512 µg/mL | 1370 µM | > 512 µg/mL | > 512 µg/mL |  | 95 ± 2.3 µM |  | inactive |  |  | >512 (>512) µg/mL |  |  |  |
| COc1ccc(-c2cc3cc(/C=C/c4cc(OC)cc(OC)c4)ccc3o2)cc1 [Compound 10] | > 256 µg/mL | 662 µM | > 256 µg/mL |  |  | > 100 µM |  | inactive |  |  |  |  |  |  |
| COc1ccc(-c2oc3cc(OC)ccc3c2-c2cc(OC)cc(OC)c2)cc1 [Compound 11] | > 256 µg/mL | 656 µM | > 256 µg/mL |  |  | > 100 µM |  | inactive |  |  |  |  |  |  |
| COc1cc(/C=C/c2ccc(O)cc2)cc(OC)c1 [pterostilbene, reference compound] | 64 µg/mL | 250 µM | 128 µg/mL (≈ 499 µM) | 64 µg/mL |  | 57 ± 10 µM |  |  |  |  |  |  |  |  |
| Oc1ccc(/C=C/c2cc(O)cc(O)c2)cc1 [resveratrol] |  |  |  |  |  | > 200 µM |  |  |  |  |  |  | 876 µM (≈ 200 µg/mL) | 200 (-) ^c µg/mL |
